Laboratory results as given in patent publication US20060128666A1, “Use of sphingomyelin and lyso-sphingomyelin as absorption enhancers” (priority 2003, published 2006).

What was measured:
[1] = test system: confluent Caco-2 cell layers; experiment: Transport of nutrients and bisphosphonates through confluent Caco-2 cell layers in two-compartment transport system, in presence of sphingolipid; assay type: in vitro ADME, human; conditions: for Transport velocity of testosterone / Velocity measured/Control velocity, testosterone: nutrient testosterone 10 μM
Procedure: GlySar, mannitol, testosterone, caffeine and cholesterol were tested at a concentration of 10 μM. This concentration was reached by mixing “cold” and radioactively labeled test substrate (mannitol, testosterone and cholesterol) or by testing the radioactively labeled substrate alone (GlySar and caffeine).
In general, the experiments were carried out in the presence and in the absence of 0.03 wt. % of bile. If bile was used in an experiment, this is explicitly stated in the results.
For the present transport studies, Caco-2 cells (passage 34) were seeded on semi-permeable filter inserts (12-well Transwell™ plates, 0.4 μm pores, Corning Costar) at 100,000 cells.per filter (growth surface 1.13 cm^2 containing 2.5 ml of culture medium). The number of cells was counted using a Bürker-Türk count chamber. The cells on the inserts were grown for 21 days at 37° C. in a humidified incubator in an atmosphere of air containing 5% of CO2. During such a culture period, the cells undergo an enterocyte-like differentiation.
Three filter inserts were used per experimental group.
The radioactivity in all samples was determined as DPM (disintegrations per minute), using an LKB/Wallac S1409 scintillation counter. The amount of radioactivity was determined in the 100-μl samples of the dose compartments and in the 500-μl samples of the receptor compartments.
In the experiments whose results are shown in Table 1, phytosphingosine was added as 0.02 wt. % (0.6 μM), ceramide III as 0.02 wt. % (0.3 μM), lysosphingomyelin as 0.008 wt. % (0.2 μM), sphinganine as 0.02 wt. % (0.6 μM) sphingosine as 0.02 wt. % (0.6 μM), egg sphingomyelin as 0.02 wt. % (0.3 μM) and glucosylceramide III as 0.02 wt. % (0.3 μM).

[2] = test system: Caco-2 cell monolayers
Procedure: After 21 days of cell culture, the transepithelial electrical resistance (TEER) of the monolayers was used to check on the growth and differentiation of the Caco-2 cells on the filters (Duizer et al., J. Contr. Release 49: 39-49, 1997). The TEER is a measure for the differentiation status of the monolayer and was measured by means of the Millicell-ERS epithelial volt ohm meter (Millipore Co., Bedford, USA). Only monolayers having a TEER higher than 500 Ω.cm^−2 were used in the transport experiments.
Three filter inserts were used per experimental group. The integrity of all monolayers of Caco-2 cells used in this study was determined by measuring the transepithelial electrical resistance (TEER).

[3] = test system: Caco-2 cell layers; experiment: Transport of the lipids themselves from apical to basolateral side of Caco-2 cell layer; conditions: 19 μg/ml lysosphingomyelin or 16.6 μg/ml phytosphingosine added to apical compartment
Procedure: The effect on transport and the transport of lipids was tested with 0.02 wt. % in transport medium (except for lysosphingomyelin and cerebroside, of which 0.008 wt. % and 0.01 wt. %, respectively, were used). Stock solutions of the test compounds were prepared in ethanol. The stock solutions were diluted in transport medium to a final concentration of 2% (v/v) ethanol in transport medium.
The culture medium was removed from the filter inserts (apical compartment) and from under the filter inserts (basolateral compartment). The inserts were washed using phosphate-buffered saline (PBS) and were moved to a new 12-well plate, whose wells had been filled with 1.8 ml of transport medium (DMEM without phenol red, non-essential amino acids (1% v/v), L-glutamine (2 mM) and gentamicin (50 μg/ml)). The transport study was started by filling the apical chamber with 600 μl of the dosed solution. A sample of 100 μl from the apical compartment was collected directly after administration of the dosage. The 12-well plate with the filter inserts was incubated on a rotating platform (60 rpm) in a humidified incubator at 37° C. under an atmosphere of 5% of CO2 in air. Samples (500 μl) from the basolateral compartment were collected at 15, 30, 60 and 120 min after the start of the transport study. […]

[4] = bisphosphonate EB1053 10 μM, no bile, lysosphingomyelin 0.008 wt. %
[5] = bisphosphonate EB1053 at 10× conc., no bile, lysosphingomyelin 0.008 wt. %
[6] = bisphosphonate d-ADP 10 μM, no bile, lysosphingomyelin 0.008 wt. %
[7] = bisphosphonate d-ADP at 10× conc., no bile, lysosphingomyelin 0.008 wt. %
[8] = nutrient GlySar 10 μM, additive 0.03% bile, lysosphingomyelin 0.008 wt. %
[9] = nutrient caffeine 10 μM, additive 0.03% bile, lysosphingomyelin 0.008 wt. %
[10] = nutrient cholesterol 10 μM, additive 0.03% bile, test lipid 0.02 wt. % (lysosphingomyelin 0.008 wt. %)
[11] = nutrient mannitol 10 μM, additive 0.03% bile, lysosphingomyelin 0.008 wt. %
[12] = additive 0.03% bile, lysosphingomyelin 0.008 wt. %
[13] = no bile, test lipid 0.02 wt. % (lysosphingomyelin 0.008 wt. %)

`CCCCCCCCCCCCC/C=C/[C@@H](O)[C@@H](N)COP(=O)([O-])OCC[N+](C)(C)C` [lysosphingomyelin, sphingosyl-phosphorylcholine] was tested, and the “Transport velocity of EB1053” value [1, 4] was 371 ± 17 cm · hour^−1 × 10^−7, the “Velocity measured/Control velocity, EB1053” value [1, 4] was 12.2 and the “Transport velocity of EB1053 (10× conc.)” value [1, 5] was 414 ± 13 cm · hour^−1 × 10^−7. The “Velocity measured/Control velocity, EB1053 (10× conc.)” value [1, 5] was 12.1, the “Transport velocity of d-ADP” value [1, 6] was 922 ± 10 cm · hour^−1 × 10^−7 and the “Velocity measured/Control velocity, d-ADP” value [1, 6] was 4.9. The “Transport velocity of d-ADP (10× conc.)” value [1, 7] was 498 ± 8 cm · hour^−1 × 10^−7, the “Velocity measured/Control velocity, d-ADP (10× conc.)” value [1, 7] was 6.1 and the “Increase of EB-1053 transport (times faster)” value ([1]; in presence of 0.008% (w/v) lysosphingomyelin) was 12 times. For the same molecule, the “Transport velocity of GlySar” value [1, 8] was 35.4 ± 2.4 cm · hour^−1 × 10^−7, the “Velocity measured/Control velocity, GlySar” value [1, 8] was 1 and the “Transport velocity of GlySar” value ([1]; nutrient GlySar 10 μM, no bile, test lipid 0.02 wt. % (lysosphingomyelin 0.008 wt. %)) was 79.7 ± 28.1 cm · hour^−1 × 10^−7. The “Transport velocity of caffeine” value [1, 9] was 560 ± 29 cm · hour^−1 × 10^−7, the “Velocity measured/Control velocity, caffeine” value [1, 9] was 1 and the “Transport velocity of caffeine” value ([1]; nutrient caffeine 10 μM, no bile, test lipid 0.02 wt. % (lysosphingomyelin 0.008 wt. %)) was 559 ± 38 cm · hour^−1 × 10^−7. The “Transport velocity of cholesterol” value [1, 10] was 1.25 (n = 1) cm · hour^−1 × 10^−7, the “Velocity measured/Control velocity, cholesterol” value [1, 10] was 1 and the “Transport velocity of mannitol” value [1, 11] was 12.3 ± 1.8 cm · hour^−1 × 10^−7. The “Velocity measured/Control velocity, mannitol” value [1, 11] was 1, the “Transport velocity of mannitol” value ([1]; nutrient mannitol 10 μM, no bile, test lipid 0.02 wt. % (lysosphingomyelin 0.008 wt. %)) was 120 ± 9 cm · hour^−1 × 10^−7 and the “Transport velocity of testosterone” value [1, 12] was 576 ± 24 cm · hour^−1 × 10^−7. The “Velocity measured/Control velocity, testosterone” value [1, 12] was 1, the “Transport velocity of testosterone” value [1, 13] was 536 ± 21 cm · hour^−1 × 10^−7 and the “Velocity measured/Control velocity, testosterone” value [1, 13] was 1. The “Resistance between the apical and basolateral liquids” value [2] was “decrease”.

In the case of `CCCCCCCCCCCCCC[C@@H](O)[C@@H](O)[C@@H](N)CO` [phytosphingosine], the “Lipid still demonstrated in the apical liquid after 120 minutes” value [3] is reported as 12.9 µg/mL and the “Lipid in the basolateral liquids (apical to basolateral transport of lipid)” value ([3]; 120 minutes) is reported as “no lipids could be demonstrated”.
